Read-outs that look alike come from different tables or passages of the source.
Assays:
[1] = system: MOLT-4 (leukemia cell line); assay: NCI-60 five-dose assay; format: cell-based, human; conditions: five doses (10^−4–10^−8 M), read-out: Growth inhibition 50 (GI50)
[2] = system: HCT-116 (colon cancer cell line); assay: NCI-60 five-dose assay; format: cell-based, human; conditions: five doses (10^−4–10^−8 M), read-out: Growth inhibition 50 (GI50)
[3] = system: LOX IMVI (melanoma cell line); assay: NCI-60 five-dose assay; conditions: for CC50: read-out: LC50 (molar concentration leading to 50% net cell death)
Breast Cancer panel = assay: NCI-60 five-dose assay, panel-level GI50 (mean graph midpoint); format: cell-based, human; conditions: Breast Cancer panel average, read-out: GI50 mean graph midpoint (MG_MID)
Description: (§1) Due to these preliminary results, six compounds, 1, 5, 10, 11, 17, and 20, were selected for the five-dose screen NCI-programme against the same panel of tumour cell lines.
(§2) Next, a mean graph midpoint (MG_MD) was calculated for compounds 1, 5, 10, 11, 17, and 20 and reported as waterfall graphs GI50, TGI, and LC50 in the Supplementary Materials (Figures S69–S86). In Table 9, we reported the average GI50 for the nine-cancer panels, underlining both the activity and selectivity for compounds 1, 10, 11, and 20.

Ovarian Cancer panel = assay: as above; format: cell-based, human; conditions: Ovarian Cancer panel average, read-out: GI50 mean graph midpoint (MG_MID)
Description: as §1, §2

CNS Cancer panel = assay: as above; format: cell-based, human; conditions: CNS Cancer panel average, read-out: GI50 mean graph midpoint (MG_MID)
Description: as §1, §2

Prostate Cancer panel = assay: as above; format: cell-based, human; conditions: Prostate Cancer panel average, read-out: GI50 mean graph midpoint (MG_MID)
Description: as §1, §2

Renal Cancer panel = assay: as above; format: cell-based, human; conditions: Renal Cancer panel average, read-out: GI50 mean graph midpoint (MG_MID)
Description: as §1, §2

[4] = system: Non-Small Cell Lung Cancer panel; assay: as above; format: cell-based, human; conditions: Non-Small Cell Lung Cancer panel average, read-out: GI50 mean graph midpoint (MG_MID)
Description: as §1, §2

[5] = system: UO-31 (renal cancer cell line); assay: NCI-60 single-dose assay; format: cell-based, human
Summary of the method: (§3)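 Cytotoxicity was screened at a single dose across the NCI-60 human tumour cell panel, which covers leukemia, melanoma and lung, colon, CNS, ovarian, renal, prostate and breast cancers.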

[6] = system: BT-549 (breast cancer cell line); assay: NCI-60 single-dose assay; format: cell-based, human
Summary of the method: as §3

[7] = system: COLO 205 (colon cancer cell line); assay: NCI-60 single-dose assay; format: cell-based, human; conditions: human
Summary of the method: as §3

[8] = system: NCI-H460 (non-small cell lung cancer cell line); assay: NCI-60 single-dose assay; format: cell-based, human
Summary of the method: as §3

[9] = system: MDA-MB-435 (melanoma cell line); assay: NCI-60 single-dose assay; format: cell-based, human; conditions: human
Summary of the method: as §3

[10] = system: KM12 (colon cancer cell line); assay: NCI-60 single-dose assay; format: cell-based, human
Summary of the method: as §3

[11] = system: MCF-7 (breast cancer cell line); assay: NCI-60 single-dose assay; format: cell-based, human
Summary of the method: as §3

[12] = system: HCT-15 (colon cancer cell line); assay: NCI-60 single-dose assay; format: cell-based, human
Summary of the method: as §3

[13] = system: CCRF-CEM (leukemia cell line); assay: NCI-60 single-dose assay; format: cell-based, human
Summary of the method: as §3

[14] = system: NCI-H23 (non-small cell lung cancer cell line); assay: NCI-60 single-dose assay; format: cell-based, human
Summary of the method: as §3

M14 (melanoma cell line) = assay: NCI-60 single-dose assay; format: cell-based, human; conditions: human
Summary of the method: as §3

[15] = system: EKVX (non-small cell lung cancer cell line); assay: NCI-60 single-dose assay; format: cell-based, human
Summary of the method: as §3

[16] = system: SK-MEL-5 (melanoma cell line); assay: NCI-60 single-dose assay; format: cell-based, human; conditions: human
Summary of the method: as §3

[17] = system: CAKI-1 (renal cancer cell line); assay: NCI-60 single-dose assay; format: cell-based, human
Summary of the method: as §3

[18] = system: SK-MEL-2 (melanoma cell line); assay: NCI-60 single-dose assay; format: cell-based, human; conditions: Homo sapiens, SK-MEL-2, read-out: growth inhibition (GI%) and cytotoxicity (negative values)
Summary of the method: as §3

[19] = system: SK-MEL-28 (melanoma cell line); assay: NCI-60 single-dose assay; format: cell-based, human; conditions: human
Summary of the method: as §3

[20] = system: MALME-3M (melanoma cell line); assay: NCI-60 single-dose assay; format: cell-based, human; conditions: human
Summary of the method: as §3

[21] = system: 786-0 (renal cancer cell line); assay: NCI-60 single-dose assay; format: cell-based, human
Summary of the method: as §3

[22] = system: NCI-H226 (non-small cell lung cancer cell line); assay: NCI-60 single-dose assay; format: cell-based, human
Summary of the method: as §3

[23] = system: MDA-MB-231/ATCC (breast cancer cell line); assay: NCI-60 single-dose assay; format: cell-based, human
Summary of the method: as §3

[24] = system: MALME-3M (melanoma cell line); assay: NCI-60 five-dose assay; conditions: for GI50: read-out: Growth inhibition 50 (GI50); for CC50: read-out: LC50 (molar concentration leading to 50% net cell death)
NCI-60 cell line panel = assay: NCI-60 single-dose assay, whole panel; format: cell-based, human; conditions: summary over the panel
Summary of the method: as §3

[25] = Homo sapiens, read-out: growth inhibition (GI%) and cytotoxicity (negative values)

With CCN1CCC[C@H]1CNC(=O)c1[nH]c2c(c1Cl)CCCc1ccccc1-2 [Compound 1, (S)-3-Chloro-N-(1-ethyl-2-pyrrolidinylmethyl)-5,6-dihydro-4H-benzo[6,7]cyclohepta[1,2-b]pyrrol-2-carboxamide] the GI50 ([1]; Homo sapiens) was 3.57 µM, the GI50 ([2]; Homo sapiens) was 3.12 µM and the “TGI (molar concentration giving total growth inhibition)” value [3] was 3.39 µM. For the same molecule, the GI50 ([3]; Homo sapiens, read-out: Growth inhibition 50 (GI50)) was 1.76 µM, the CC50 ([3]; Homo sapiens) was 6.31 µM and the GI50 (Breast Cancer panel; Homo sapiens) was 4.47 µM. The GI50 (Ovarian Cancer panel; Homo sapiens) was 2.29 µM, the GI50 (CNS Cancer panel; Homo sapiens) was 4.79 µM and the GI50 (Prostate Cancer panel; Homo sapiens) was 8.13 µM. It also gave a GI50 (Renal Cancer panel; Homo sapiens) of 5.25 µM, a GI50 ([4]; Homo sapiens) of 7.24 µM and an inhibition at 10 µM ([5]; Homo sapiens, UO-31, read-out: growth inhibition (GI%) and cytotoxicity (negative values)) of 83%. The inhibition at 10 µM ([6]; Homo sapiens, BT-549, read-out: growth inhibition (GI%) and cytotoxicity (negative values)) was 62.9%, the “growth inhibition (GI%) and cytotoxicity (negative values)” value (shortened to “growth inhibition (GI%) and cytotoxicity”) [7] was −52.22% and the “growth inhibition (GI%) and cytotoxicity” value ([8]; human) was −54.58%. For the same molecule, the “growth inhibition (GI%) and cytotoxicity” value [9] was −78.15%, the inhibition at 10 µM ([10]; Homo sapiens, KM12, read-out: growth inhibition (GI%) and cytotoxicity (negative values)) was 83.8% and the inhibition at 10 µM ([11]; Homo sapiens, MCF7, read-out: growth inhibition (GI%) and cytotoxicity (negative values), MCF-7, 10^−5 M) was 87.2%. The “growth inhibition (GI%) and cytotoxicity” value ([12]; human) was −52.66%, the inhibition at 10 µM [13, 25] was 75.5% and the inhibition at 10 µM ([14]; Homo sapiens, NCI-H23, read-out: growth inhibition (GI%) and cytotoxicity (negative values)) was < 60%. For the same molecule, the “growth inhibition (GI%) and cytotoxicity” value (M14 (melanoma cell line)) was −68.50%, the inhibition at 10 µM [15, 25] was 68.8% and the “growth inhibition (GI%) and cytotoxicity” value [16] was −88.03%. The “growth inhibition (GI%) and cytotoxicity” value ([17]; human) was −27.03%, the inhibition at 10 µM [18] was 85.8% and the “growth inhibition (GI%) and cytotoxicity” value [19] was −85.77%. The “growth inhibition (GI%) and cytotoxicity” value [20] was −90.67%, the “growth inhibition (GI%) and cytotoxicity” value ([21]; human) was −22.61% and the inhibition at 10 µM ([22]; Homo sapiens, NCI-H226, read-out: growth inhibition (GI%) and cytotoxicity (negative values)) was < 60%. The inhibition at 10 µM ([23]; Homo sapiens, MDA-MB-231, read-out: growth inhibition (GI%) and cytotoxicity (negative values)) was 89%, the GI50 ([24]; Homo sapiens, Malme-3M) was 1.54 µM and the CC50 ([24]; Homo sapiens, Malme-3M) was 5.62 µM. For the same molecule, the “TGI (molar concentration giving total growth inhibition)” value ([24]; MALME-3M) was 2.95 µM and the “growth inhibition (GI%) reached against cancer cell lines of the NCI-60 panel” value (NCI-60 cell line panel) was > 90%.

“N-(3-(4-Benzylpiperazin-1-yl)propyl)-2-chloro-1,4,5,6-tetrahydrobenzo[6,7]cyclohepta[1,2-b]pyrrole-2-carboxamide [Compound 11]” was tested, and the GI50 [1] was 2.69 µM, the GI50 [2] was 3.37 µM and the “TGI (molar concentration giving total growth inhibition)” value [3] was 5.13 µM. It also gave a GI50 ([3]; read-out: Growth inhibition 50 (GI50), five doses (10^−4–10^−8 M)) of 2.16 µM, a CC50 [3] of 15.8 µM and a GI50 (Breast Cancer panel) of 3.47 µM. The GI50 (Ovarian Cancer panel) was 7.94 µM, the GI50 (CNS Cancer panel) was 5.25 µM and the GI50 (Prostate Cancer panel) was 5.13 µM. For the same molecule, the GI50 (Renal Cancer panel) was 5.89 µM, the GI50 [4] was 7.08 µM and the “growth inhibition (GI%) and cytotoxicity” value ([5]; UO-31, 10^−5 M, single dose) was 63.12%. The “growth inhibition (GI%) and cytotoxicity” value ([6]; BT-549, 10^−5 M, single dose) was “– (GI% values < 60% and no cytotoxicity)”, the “growth inhibition (GI%) and cytotoxicity” value ([8]; NCI-H460, 10^−5 M, single dose) was 98.58% and the “growth inhibition (GI%) and cytotoxicity” value ([10]; KM12, 10^−5 M, single dose) was 78.00%. The “growth inhibition (GI%) and cytotoxicity” value ([11]; MCF-7, 10^−5 M) was 90.34%, the “growth inhibition (GI%) and cytotoxicity” value ([12]; HCT-15, 10^−5 M, single dose) was 84.78% and the “growth inhibition (GI%) and cytotoxicity” value ([13]; 10^−5 M, single dose) was 76.14%. For the same molecule, the “growth inhibition (GI%) and cytotoxicity” value ([14]; NCI-H23, 10^−5 M, single dose) was “– (GI% values < 60% or no cytotoxicity)”, the “growth inhibition (GI%) and cytotoxicity” value ([15]; 10^−5 M, single dose) was 70.83% and the “growth inhibition (GI%) and cytotoxicity” value ([17]; CAKI-1, 10^−5 M, single dose) was 91.53%. For the same molecule, the “growth inhibition (GI%) and cytotoxicity” value ([21]; 786-0, 10^−5 M, single dose) was 72.88%, the “growth inhibition (GI%) and cytotoxicity” value ([22]; NCI-H226, 10^−5 M, single dose) was 64.87% and the “growth inhibition (GI%) and cytotoxicity” value ([23]; MDA-MB-231/ATCC, 10^−5 M, single dose) was 61.71%. The “TGI (molar concentration giving total growth inhibition)” value ([24]; MALME-3M) was 3.48 µM, the GI50 ([24]; MALME-3M, five doses (10^−4–10^−8 M)) was 1.9 µM and the CC50 ([24]; MALME-3M) was 6.46 µM. For the same molecule, the “growth inhibition (GI%) reached against cancer cell lines of the NCI-60 panel” value (NCI-60 cell line panel) was > 90%.

Source: article PMC12566046, “Arylpiperazinyl-Benzocycloheptapyrrole-Carboxamides Endowed with Dual Anticancer and Antiviral Activities” (Molecules, 2025)
